Activity calls are given as the source filed them. Some results are limits rather than exact numbers.

One assay concerns the target T1, Protein skinhead-1 (Caenorhabditis elegans, UniProt P34707).
T1 sequence (P34707 whole entry): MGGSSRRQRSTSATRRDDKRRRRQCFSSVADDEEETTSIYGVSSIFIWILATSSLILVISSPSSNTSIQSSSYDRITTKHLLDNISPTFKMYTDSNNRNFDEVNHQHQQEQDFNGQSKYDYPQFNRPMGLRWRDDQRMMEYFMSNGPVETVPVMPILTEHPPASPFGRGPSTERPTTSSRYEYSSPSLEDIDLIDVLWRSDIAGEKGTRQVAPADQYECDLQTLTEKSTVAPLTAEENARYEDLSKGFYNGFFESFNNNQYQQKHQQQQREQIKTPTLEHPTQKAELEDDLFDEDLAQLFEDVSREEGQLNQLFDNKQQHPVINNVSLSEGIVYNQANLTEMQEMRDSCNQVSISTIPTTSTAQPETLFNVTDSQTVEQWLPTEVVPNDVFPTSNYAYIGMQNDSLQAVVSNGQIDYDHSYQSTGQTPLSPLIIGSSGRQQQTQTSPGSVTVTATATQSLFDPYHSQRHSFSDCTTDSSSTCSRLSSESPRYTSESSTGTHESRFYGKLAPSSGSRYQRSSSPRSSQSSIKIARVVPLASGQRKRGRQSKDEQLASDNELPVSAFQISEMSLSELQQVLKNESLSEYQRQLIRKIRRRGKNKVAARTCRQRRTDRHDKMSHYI
It is filed as functional.

Assay [1] deals with T2, Heat shock factor protein 1 (Mus musculus, UniProt P38532).
T2 sequence (P38532 whole entry): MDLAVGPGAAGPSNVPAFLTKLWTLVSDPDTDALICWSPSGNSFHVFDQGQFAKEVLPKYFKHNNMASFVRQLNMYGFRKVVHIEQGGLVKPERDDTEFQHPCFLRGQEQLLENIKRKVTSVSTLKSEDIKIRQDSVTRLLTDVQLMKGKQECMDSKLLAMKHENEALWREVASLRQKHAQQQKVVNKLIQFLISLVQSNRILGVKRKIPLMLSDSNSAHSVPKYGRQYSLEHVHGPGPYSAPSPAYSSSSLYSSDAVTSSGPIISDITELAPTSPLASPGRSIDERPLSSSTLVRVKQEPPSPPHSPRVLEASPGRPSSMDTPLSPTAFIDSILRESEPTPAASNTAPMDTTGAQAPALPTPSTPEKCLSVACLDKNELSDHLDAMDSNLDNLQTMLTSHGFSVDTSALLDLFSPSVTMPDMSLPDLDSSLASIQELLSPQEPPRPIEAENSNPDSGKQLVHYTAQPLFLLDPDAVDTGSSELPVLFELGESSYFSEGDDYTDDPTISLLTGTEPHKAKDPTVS
As to the kind of experiment: decrease of HSF1-responsive luciferase luminescence – cell-based, NIH3T3, dose retest, confirmation (AID 2382).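 Note: NIH3T3 fibroblasts with HSF1-driven luciferase reporter stressed by proteasome inhibitor MG132; luminescence from HSF1-driven luciferase expression after 8 hours of MG132 stress.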 It is filed as functional.

For assay [2], the target named is T3, Corticotropin-releasing factor receptor 2/Corticotropin-releasing factor-binding protein (Homo sapiens, UniProt P24387+Q13324).
T3 sequence (Q13324 whole entry): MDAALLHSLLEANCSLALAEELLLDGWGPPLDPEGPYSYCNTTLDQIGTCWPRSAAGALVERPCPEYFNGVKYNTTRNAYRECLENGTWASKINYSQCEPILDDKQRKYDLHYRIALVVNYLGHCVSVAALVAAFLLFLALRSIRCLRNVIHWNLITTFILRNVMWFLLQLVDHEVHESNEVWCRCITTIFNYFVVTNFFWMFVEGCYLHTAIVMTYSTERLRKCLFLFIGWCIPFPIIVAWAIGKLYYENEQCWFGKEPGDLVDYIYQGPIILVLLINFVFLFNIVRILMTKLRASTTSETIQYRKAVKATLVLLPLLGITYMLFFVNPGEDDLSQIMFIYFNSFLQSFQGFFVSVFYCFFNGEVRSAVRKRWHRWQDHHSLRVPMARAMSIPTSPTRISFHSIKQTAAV
T3 sequence (P24387 whole entry): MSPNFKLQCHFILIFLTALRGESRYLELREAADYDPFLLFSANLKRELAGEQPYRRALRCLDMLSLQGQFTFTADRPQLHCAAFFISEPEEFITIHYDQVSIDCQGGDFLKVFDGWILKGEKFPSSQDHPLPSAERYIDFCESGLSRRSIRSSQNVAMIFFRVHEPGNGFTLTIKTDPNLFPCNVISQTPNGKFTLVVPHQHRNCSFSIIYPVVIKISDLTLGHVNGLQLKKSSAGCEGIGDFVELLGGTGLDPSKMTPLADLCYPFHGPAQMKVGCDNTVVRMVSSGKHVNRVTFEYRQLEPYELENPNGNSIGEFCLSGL
As to the kind of experiment: activators of CRF receptor 2 with binding protein – uHTS hits, confirmation (AID 602473). The format is functional. As to conditions: read-out: EC50_Mean.

In assay [3] the target is T3, Corticotropin-releasing factor receptor 2/Corticotropin-releasing factor-binding protein. As to the kind of experiment: Dose Response confirmation of uHTS hits for small molecule antagonists of the CRF-binding protein and CRF-R2 receptor complex. It is filed as functional. As to conditions: read-out: IC50_Mean.
The target in the next assay is Genome polyprotein (dengue virus type 2, UniProt P29990). As to the kind of experiment: flavivirus cap methylation enzyme inhibition – biochemical, confirmation dose response, primary screen (AID 588689). It is filed as functional.
Sequence of Genome polyprotein (P29990 2492-3391 limits assumed): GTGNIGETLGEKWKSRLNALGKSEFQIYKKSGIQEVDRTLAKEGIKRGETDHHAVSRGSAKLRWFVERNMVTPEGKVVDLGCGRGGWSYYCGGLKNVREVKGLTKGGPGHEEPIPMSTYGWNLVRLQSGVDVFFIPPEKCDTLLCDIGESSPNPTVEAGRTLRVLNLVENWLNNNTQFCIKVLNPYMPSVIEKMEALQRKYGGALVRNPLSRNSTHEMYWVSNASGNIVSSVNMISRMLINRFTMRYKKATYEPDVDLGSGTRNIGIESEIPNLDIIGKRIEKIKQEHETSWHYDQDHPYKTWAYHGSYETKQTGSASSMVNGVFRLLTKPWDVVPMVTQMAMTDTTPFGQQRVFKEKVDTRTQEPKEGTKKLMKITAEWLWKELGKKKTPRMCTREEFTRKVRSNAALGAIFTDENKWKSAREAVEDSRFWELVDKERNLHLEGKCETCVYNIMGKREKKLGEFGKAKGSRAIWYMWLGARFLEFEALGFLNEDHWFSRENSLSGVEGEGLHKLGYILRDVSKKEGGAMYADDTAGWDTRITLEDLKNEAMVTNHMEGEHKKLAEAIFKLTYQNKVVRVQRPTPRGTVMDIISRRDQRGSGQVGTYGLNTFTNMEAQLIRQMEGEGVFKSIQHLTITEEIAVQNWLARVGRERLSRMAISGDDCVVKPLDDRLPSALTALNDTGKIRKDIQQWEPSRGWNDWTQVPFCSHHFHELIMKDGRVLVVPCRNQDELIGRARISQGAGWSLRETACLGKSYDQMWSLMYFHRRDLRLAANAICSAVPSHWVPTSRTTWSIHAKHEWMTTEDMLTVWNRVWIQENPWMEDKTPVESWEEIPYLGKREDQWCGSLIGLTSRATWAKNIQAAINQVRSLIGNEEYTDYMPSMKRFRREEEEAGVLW
A short description of assay [4]: DRD fibroblast viability loss – cell-based, non-viral oncogenic, luminescence, dose response (AID 1934). The format is functional. As to conditions: Homo sapiens.
Assay [5] concerns the target T2, Heat shock factor protein 1. As to the kind of experiment: enhancement of HSF1-driven luciferase signal – cell-based, NIH3T3, luminescence, dose retest, confirmation (AID 435004).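 Note: stress induced by proteasome inhibitor MG132 added 30 min after compound; luciferase reporter driven by HSF1 response element in NIH3T3 cells; actives raise luminescence as potentiators of the MG132 stress response.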 It is filed as functional.
Assay [6] relates to BJ. As to the kind of experiment: cells. It is filed as functional, cell-based. The conditions noted are these: Homo sapiens.
Assay [7] relates to BJ. As to the kind of experiment: BJ-TERT-LT-ST fibroblast viability loss – cell-based, RAS-independent, luminescence, dose response (AID 1935).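 Note: BJ fibroblasts immortalized with TERT plus LT and ST oncogenes.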 The format is functional. As to conditions: Homo sapiens.
For assay [8], the system named is BJ. As to the kind of experiment: BJ-TERT fibroblast viability loss – cell-based, RAS-independent, luminescence, dose response (AID 1933). It is filed as functional. As to conditions: Homo sapiens.

Take `c1ccc(OCCSc2nc3ccccc3o2)cc1`: the IC50 at Protein skinhead-1 is 32.4 µM (active). The EC50 in [1] is recorded as > 195 µM (not active).

`CCCCC(=O)NCc1ccc2c(c1)cc(C)n2C`: on Protein skinhead-1, the IC50 was > 100 µM (inactive).

Turning to `CN(C(=O)COC(=O)CCc1nc2ccccc2c(=O)[nH]1)C1CCS(=O)(=O)C1` (stereo unspecified), the EC50 in assay [2] is > 53 µM (inactive). Also, the IC50 in assay [3] is 40.1 µM (active).

For `O=C(Nc1ccccc1)Nc1csc2ccccc12`, the IC50 at Protein skinhead-1 is > 100 µM (inactive).

In the case of `O=C(O)c1ccc2c(c1Nc1ccccc1)C(=O)c1ccccc1C2=O`, the IC50 on Genome polyprotein was > 100 µM (active).

As for `NC(=NOCC(=O)Nc1ccccc1)c1nonc1N`, the EC50 in assay [2] was > 53 µM (inactive). The IC50 in [3] is > 47.1 µM (inactive).

As to `O=C1/C(=C/c2ccccc2Cl)SC(=S)N1CCC(=O)N1CCCCC1CCO` (stereo unspecified), the EC50 in [4] was 45.3 µM (active); in assay [5], > 260 µM (inactive); in the assay on BJ [6], > 150 µM (inconclusive); with BJ [7] it was > 150 µM (not active); in the assay on BJ [8], 19 µM (active).

`Nc1nn(S(=O)(=O)c2ccccc2)cc1-c1ccc([N+](=O)[O-])cc1`: in assay [2], the EC50 is > 53 µM (inactive). Also, the IC50 in assay [3] is > 47.1 µM (inactive).

As for `O=C(NN=Cc1cc(Br)c(O)c(Br)c1)c1ccccc1NS(=O)(=O)c1cccs1`, on Genome polyprotein, the IC50 is 27.7 µM (active).

As to `O=C(Cn1nc(Cl)nc1Cl)Nc1ccccc1`, the EC50 in assay [2] was > 53 µM (inactive). Further, in assay [3], the IC50 was > 47.1 µM (inactive).

For `CCOC(=O)C(C)On1c(-c2ccc(Cl)cc2)nc2ccc([N+](=O)[O-])cc21` (stereo unspecified), the IC50 on Protein skinhead-1 was > 100 µM (inactive).

For `CS(=O)(=O)N1CCN(C(=O)COc2ccc3ccccc3c2)CC1`, the EC50 in assay [2] was > 53 µM (inactive). Further, the IC50 in assay [3] was > 47.1 µM (inactive).

Turning to `O=S(=O)(c1ccc(F)cc1)n1ccc(-c2cccc(OCc3c(F)cccc3Cl)c2)n1`, on Protein skinhead-1, the IC50 was > 100 µM (inactive).

In the case of `O=C1/C(=C/c2cccs2)SC(=S)N1CC(=O)N1CCCCC1CCO` (stereo unspecified), the IC50 on Protein skinhead-1 was > 100 µM (inactive).

Consider `CCc1c(C)nc(SCC(=O)N2CCN(c3ccccc3OC)CC2)nc1O`, for which the EC50 in [2] was > 53 µM (inactive). Further, the IC50 in assay [3] was > 47.1 µM (inactive).

In the case of `COc1cc(NC(=O)[C@H](C)NC(=O)N2CCn3c2nc2ccccc23)cc(OC)c1`, the EC50 in assay [2] is > 53 µM (inactive). The IC50 in assay [3] is > 47.1 µM (inactive).

Regarding `Cc1cccc(NC(=O)Cc2ccc(NC3=NC4CS(=O)(=O)CC4S3)cc2)c1` (stereo unspecified), the EC50 in assay [2] was > 53 µM (inactive). The IC50 in [3] was > 47.1 µM (inactive).

As for `CCN(C(=O)CCc1nnc2ccc(N3CCC4(CC3)OCCO4)nn12)c1ccccc1`, the EC50 in assay [2] is > 53 µM (inactive). The IC50 in assay [3] is > 47.1 µM (inactive).

Turning to `COc1ccc(-c2cc(C(=O)NC3CCCC3)c3ccccc3n2)cc1OC`, the EC50 in assay [2] was > 53 µM (inactive). Further, in [3], the IC50 was > 47.1 µM (inactive).

Take `CCC(=O)c1ccc(OCC(=O)NCCCN2CCOCC2)cc1`: the EC50 in assay [2] is > 53 µM (inactive). The IC50 in [3] was > 47.1 µM (inactive).

The record behind these values is ChEMBL document CHEMBL1201862, “PubChem BioAssay data set” (2004).
